# Structures can show the parent of a compound that is named as a salt. Where two headings read alike, the source gives them in different places.
# B1: IFN-beta: murine interferon beta, 10,000 U s.c. (protein, UniProt P01575 22-182, looked up)
# Interferon beta: INYKQLQLQERTNIRKCQELLEQLNGKINLTYRADFKIPMEMTEKMQKSYTAFAIQEMLQNVFLVFRNNFSSTGWNETIVVRLLDELHQQTVFLKTVLEEKQEERLTWEMSSTALHLKSYYWRVQRYLKLMKYNSYAWMVVRAEIFRNFLIIRRLTRNFQN
# Columns and labels:
# MOG-EAE [1] = settings: 100 or 500 mcg glatiramer acetate co-injected with MOG antigen; FIG. 3
# Excerpt: In this experiment mice were co-injected with glatiramer acetate and the MOG antigen. Specifically, a control group received MOG alone, while two experimental groups received doses of 100 or 500 mcg glatiramer acetate.
# MOG-EAE [2] = experiment: DMF/GA co-therapy during chronic MOG-EAE (Example 3); assay type: in vivo, mice; settings: for mean clinical EAE score during the chronic phase / onset of EAE symptoms: FIG. 4; for infiltration by T cells / number of infiltrating macrophages: chronic MOG-EAE; for infiltration by T cells: FIG. 7; for number of infiltrating macrophages: FIG. 8; for axonal loss and destruction: chronic phase, FIG. 9
# Protocol: The treatment groups were as follows: 1) Mice immunized with 200 μg MOG/CFA (complete Freund's adjuvant)+200 ng PTX (pertussis toxin)+vehicle (methocel). 2) Mice immunized with 200 μg MOG/CFA and 50 μg GA+vehicle. […] Long term experiment: additional boost on day 28 p.i.
# MOG-EAE [3] = settings: in vivo; cited from earlier work
# MOG-EAE [4] = experiment: DMF/GA co-therapy during short term (acute) course of MOG-EAE (Examples 3 and 8); assay type: in vivo, mice; settings: for Incidence: pooled data from three experiments; for macrophage/microglia in EAE lesions: day 26 p.i., FIG. 13
# Protocol: The treatment groups were as follows:
# 1) Mice immunized with 200 μg MOG/CFA (complete Freund's adjuvant)+200 ng PTX (pertussis toxin)+vehicle (methocel).
# 2) Mice immunized with 200 μg MOG/CFA and 50 μg GA+vehicle.
# In the acute disease phase (day 26 or day 18 p.i., respectively), parameters of inflammation as well as CNS tissue integrity were analyzed. To this end, 12 week wild-type or C57BL/6 mice were actively immunized with […] of MOG peptide 35-55 and pertussis toxin. On day 18 or 26 p.i., histochemistry was performed to identify T cells (CD3 immunohistochemistry), macrophages/microglia (Mac-3), demyelination (Luxol Fast Blue staining), and axonal loss (Bielschowsky silver impregnation). Histological changes were quantified by a blinded observer counting six visual fields on spinal cord cross sections comprising cervical, thoracic and lumbar spinal cord. Statistical evaluations were performed by Kruskal-Wallis test or t-test. ** p<0.01; *** p<0.001.
# [5] = not given; remark: listed apart in the source
# MOG-EAE [6] = experiment: DMF/IFN-beta co-therapy in MOG-EAE (Examples 4 and 8); assay type: in vivo, mice; settings: DMF 15 mg/kg p.o.; for Incidence: FIG. 11, IFN-beta 10,000 U s.c. e.o.d; for mean clinical EAE score / clinical disease course: short-term course, IFN-beta 10,000 U s.c., FIG. 11, FIG. 15
# MOG-EAE [7] = experiment: Efficacy of DMF in chronic MOG-EAE (Example 1); assay type: in vivo, mouse
# Excerpt: See also, Schilling et al., “Fumaric Acid Esters Are Effective in Chronic Experimental Autoimmune Encephalomyelitis and Supress Macrophage Infiltration,” Clinical and Experimental Immunology, Vol. 145, No. 1, pp. 101-107 (2006).
# [8] = FIG. 4, single experiment, GA 50 μg, DMF 15 mg/kgBW
# [9] = FIG. 5, pooled data from two experiments (n=12 per group)
# [10] = GA study, healthy volunteers, DMF 240 mg tid
# [11] = IFN-beta-1a study, healthy volunteers, DMF 240 mg tid
molecule,measurement,setting,value
"L-glutamic acid polymer with L-alanine, L-lysine and L-tyrosine, acetate (salt) [GA]",mean clinical score,MOG-EAE [1],reduced the mean clinical score of the 100 or 500 mcg groups in a dose-dependent manner
same,Incidence,MOG-EAE [2]; [8],6/6
same,mean clinical EAE score during the chronic phase,"MOG-EAE [2]; GA 50 μg, DMF 15 mg/kgBW",intermediate effect
same,onset of EAE symptoms,"MOG-EAE [2]; GA 50 μg, DMF 15 mg/kgBW",delayed
same,Incidence,MOG-EAE [2]; [9],11/12
same,infiltration by T cells,MOG-EAE [2],neither GA nor DMF reduces
same,number of infiltrating macrophages,MOG-EAE [2],neither GA nor DMF alone does so
same,"infiltrates (inflammatory index, HE staining of spinal cords)","MOG-EAE [2]; chronic disease phase, FIG. 6",reduces infiltrates
same,axonal loss and destruction,MOG-EAE [2],reduce axonal loss and destruction
same,prevention of clinical and histological signs of EAE in combination with atorvastatin,MOG-EAE [3],synergize with atorvastatin
same,Incidence,MOG-EAE [4]; short term course,13/18
"COC(=O)/C=C/C(=O)OC [DMF, Dimethyl fumarate]",Incidence,MOG-EAE [2]; [8],6/6
same,mean clinical EAE score during the chronic phase,"MOG-EAE [2]; GA 50 μg, DMF 15 mg/kgBW",little if any effect
same,onset of EAE symptoms,"MOG-EAE [2]; GA 50 μg, DMF 15 mg/kgBW",delayed
same,Incidence,MOG-EAE [2]; [9],9/12
same,infiltration by T cells,MOG-EAE [2],neither GA nor DMF reduces
same,number of infiltrating macrophages,MOG-EAE [2],neither GA nor DMF alone does so
same,axonal loss and destruction,MOG-EAE [2],reduce axonal loss and destruction
same,macrophage/microglia in EAE lesions,MOG-EAE [4],reduction of macrophage/microglia
same,macrophage/microglia in EAE lesions,MOG-EAE [4]; listed as DMF alone,efficiently reduces
same,Incidence,MOG-EAE [4]; short term course,11/18
same,mean clinical EAE score / clinical disease course,"MOG-EAE [4]; short term course, FIG. 10A and 10B",greater than that of GA
same,most common adverse events,GA study,flushing
same,new safety signals,GA study,no new safety signals
same,Any AE,[10],84%
same,Diarrhea,[10],8%
same,Flushing,[10],76%
same,Headache,[10],12%
same,Nausea,[10],8%
same,Paresthesia,[10],32%
same,Pruritus,[10],28%
same,subjects discontinued due to adverse event,"GA study, mild erythematous facial nodule (DMF alone), mild nausea (DMF+GA)",one
same,Influenza-like illness,"human, in vivo",0%
same,most common adverse events,[5]; IFN-beta-1a study,flushing
same,new safety signals,[5]; IFN-beta-1a study,no new safety signals
same,Any AE,[5]; [11],71%
same,Diarrhea,[5]; [11],0%
same,Flushing,[5]; [11],50%
same,Headache,[5]; [11],13%
same,Nausea,[5]; [11],4%
same,Paresthesia,[5]; [11],21%
same,Pruritus,[5]; [11],4%
same,Influenza-like illness,"[5]; human, in vivo",0%
same,Incidence,MOG-EAE [6],6/6
same,mean clinical EAE score / clinical disease course,MOG-EAE [6],exacerbated the EAE compared to the methocel controls
same,mean clinical score,"MOG-EAE [7]; DMF 15 mg/kg twice daily via oral gavage, FIG. 1",reduced
same,T-cell infiltration,"MOG-EAE [7]; mouse, in vivo",without suppressing
same,efficacy in chronic MOG-EAE,"MOG-EAE [7]; mouse, in vivo",effective
same,macrophage infiltration,"MOG-EAE [7]; mouse, in vivo",suppress
same,demyelination,"MOG-EAE [7]; spinal cord tissue, FIG. 2B",reduced
B1,Incidence,MOG-EAE [6],5/6
same,mean clinical EAE score / clinical disease course,MOG-EAE [6],exacerbated the EAE compared to the methocel controls

# Source: patent US20180021288A1, “Neuroprotection in Demyelinating Diseases” (Biogen MA Inc., priority 2010, published 2018)
